Data from patent US9938322B2, “β-hairpin peptidomimetics” (priority 2013, dated 2018).
*1 amine or outer side, *2 acyl side, *3 side chain or, on linkers, in order; H or OH if unused. Where a SMILES comes first, the peptide text is derived from it. Side-chain parts run from the residue outwards. [ ]: non-standard residue; d: D form. The star is where a group is joined. Abu(4,4,4-F3) = N[C@@H](CC(F)(F)F)C(=O)O; X2 = O=C([C@H](CCNCc1ccccn1)N[*:1])[*:2]; Pro(3S-OH) = O=C(O)[C@H]1NCC[C@@H]1O; X1 = CC(C)NC[C@H](N[*:1])C(=O)[*:2]; Orn(iPr) = CC(C)NCCC[C@H](N)C(=O)O; Cha = N[C@@H](CC1CCCCC1)C(=O)O; NH(3-picolyl) = c1cncc(CN*)c1; Chg = N[C@H](C(=O)O)C1CCCCC1; Tle = CC(C)(C)[C@H](N)C(=O)O; dDab = NCC[C@@H](N)C(=O)O; hSer = N[C@@H](CCO)C(=O)O; Orn = NCCC[C@H](N)C(=O)O; Api = NC1(C(=O)O)CCNCC1; Dab = NCC[C@H](N)C(=O)O; Nva = CCC[C@H](N)C(=O)O; Abu = CC[C@H](N)C(=O)O; Dap = NC[C@H](N)C(=O)O; X4 = CCCCOc1ccc(N*)cc1; CO = O=C([*:1])[*:2]

Test system: human red blood cells (hRBC)
Assay: Hemolysis of human red blood cells
Type: cell-based
Settings: red cells of human, 1 h, 100
Summary of the method: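 Washed fresh human erythrocytes (20% v/v, about 0.9×10^9 cells/ml final) incubated with peptide at 100 μg/ml for 1 h at 37° C with shaking. Supernatant OD540 read; hemolysis expressed relative to 2.5% Triton X-100 (100%) and PBS with 0.001% acetic acid (0%).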

| SMILES | Hemolysis at 100 μg/ml [%] |
| --- | --- |
| C[C@@H]1NC(=O)[C@H](Cc2c[nH]c3ccccc23)NC(=O)[C@@H]2CCCN2C(=O)[C@H]2CCCN2C(=O)[C@H](CO)NC(=O)[C@H](C)NC(=O)[C@H](C2CCCCC2)NC(=O)[C@H](CCN)NC(=O)[C@H](Cc2c[nH]c3ccccc23)NC(=O)[C@H](CCN)NC(=O)[C@@H](CCN)NC(=O)[C@H](CCCN)NC(=O)[C@H](CCN)NC(=O)[C@H](Cc2ccc(O)cc2)NC1=O [compound 77] (cyclo(WAY[Dab][Orn][dDab][Dab]W[Dab][Chg]AS[dP]P)) | 1 |
| CC(C)NCCC[C@@H]1NC(=O)[C@H](CCN)NC(=O)[C@H](CC2CCCCC2)NC(=O)[C@H](CNC(C)C)NC(=O)[C@H](Cc2c[nH]c3ccccc23)NC(=O)[C@@H]2CCCN2C(=O)[C@H]2CCCN2C(=O)[C@H](CO)NC(=O)[C@H](CO)NC(=O)[C@H](C(C)(C)C)NC(=O)[C@H](CCN)NC(=O)[C@H](Cc2c[nH]c3ccccc23)NC(=O)[C@H](CCN)NC(=O)[C@@H](CCN)NC1=O [compound 8] (cyclo(W[X1][Cha][Dab][Orn(iPr)][dDab][Dab]W[Dab][Tle]SS[dP]P)) | 7 |
| CC(C)C[C@@H]1NC(=O)[C@@H]2CCCN2C(=O)[C@H]2CCCN2C(=O)[C@H](CN)NC(=O)[C@H](C)NC(=O)[C@H](C(C)(C)C)NC(=O)[C@H](CCO)NC(=O)[C@H](Cc2c[nH]c3ccccc23)NC(=O)[C@H](CCN)NC(=O)[C@@H](CCN)NC(=O)[C@H](CCCN)NC(=O)[C@H](CCN)NC(=O)[C@H](Cc2ccc(O)cc2)NC(=O)[C@H](CO)NC1=O [compound 42] (cyclo(LSY[Dab][Orn][dDab][Dab]W[hSer][Tle]A[Dap][dP]P)) | 1 |
| CC(C)C[C@@H]1NC(=O)[C@@H]2CCCN2C(=O)[C@H]2CCCN2C(=O)[C@H](CO)NC(=O)[C@H](CC(=O)O)NC(=O)[C@H](C(C)(C)C)NC(=O)[C@H](CCN)NC(=O)[C@H](Cc2c[nH]c3ccccc23)NC(=O)[C@H](CCN)NC(=O)[C@@H](CCN)NC(=O)[C@H](CCCN)NC(=O)[C@H](CCN)NC(=O)[C@H](Cc2ccc(O)cc2)NC(=O)[C@H](CCN)NC1=O [compound 159] (cyclo(L[Dab]Y[Dab][Orn][dDab][Dab]W[Dab][Tle]DS[dP]P)) | 1 |
| CC(C)C[C@@H]1NC(=O)[C@@H]2CCCN2C(=O)[C@H]2CCCN2C(=O)[C@H](CO)NC(=O)[C@H](CO)NC(=O)[C@H](C(C)(C)C)NC(=O)[C@H](CCN)NC(=O)[C@H](Cc2c[nH]c3ccccc23)NC(=O)[C@H](CCN)NC(=O)[C@@H](CCN)NC(=O)[C@H](CCCN)NC(=O)[C@H](CCN)NC(=O)[C@H](Cc2ccc(O)cc2)NC(=O)[C@H](C)NC1=O [compound 130] (cyclo(LAY[Dab][Orn][dDab][Dab]W[Dab][Tle]SS[dP]P)) | 0.2 |
| CCC[C@@H]1NC(=O)[C@@H]2CCCN2C(=O)[C@H]2CCCN2C(=O)[C@H](CO)NC(=O)[C@H](C)NC(=O)[C@H](CC2CCCCC2)NC(=O)[C@H](CCN)NC(=O)[C@H](Cc2c[nH]c3ccccc23)NC(=O)[C@H](CCN)NC(=O)[C@@H](CCN)NC(=O)[C@H](CCCCN)NC(=O)[C@H](CCN)NC(=O)[C@H](C(C)(C)C)NC(=O)[C@H](CO)NC1=O [compound 139] (cyclo([Nva]S[Tle][Dab]K[dDab][Dab]W[Dab][Cha]AS[dP]P)) | 5 |
| CC(C)C[C@@H]1NC(=O)[C@@H]2CCCN2C(=O)[C@H]2CCCN2C(=O)[C@H](CO)NC(=O)[C@H](C)NC(=O)[C@H](C(C)(C)C)NC(=O)[C@H](CCN)NC(=O)[C@H](Cc2c[nH]c3ccccc23)NC(=O)[C@H](CCN)NC(=O)[C@@H](CCN)NC(=O)[C@H](CCCN)NC(=O)[C@H](CCN)NC(=O)[C@H](Cc2c[nH]c3ccccc23)NC(=O)[C@H](CN)NC1=O [compound 147] (cyclo(L[Dap]W[Dab][Orn][dDab][Dab]W[Dab][Tle]AS[dP]P)) | 0 |
| COC[C@@H]1NC(=O)[C@H](Cc2c[nH]c3ccccc23)NC(=O)[C@@H]2CCCN2C(=O)[C@H]2CCCN2C(=O)[C@H](CO)NC(=O)[C@H](C)NC(=O)[C@H](C(C)(C)C)NC(=O)[C@H](CCN)NC(=O)[C@H](Cc2c[nH]c3ccccc23)NC(=O)[C@H](CCN)NC(=O)[C@@H](CCN)NC(=O)[C@H](CCCN)NC(=O)[C@H](CCN)NC(=O)[C@H](CC2CCCCC2)NC1=O [compound 2] (cyclo(WS(Me)[Cha][Dab][Orn][dDab][Dab]W[Dab][Tle]AS[dP]P)) | 1.7 |
| CC[C@@H]1NC(=O)[C@H]([C@@H](C)CC)NC(=O)[C@@H]2CCCN2C(=O)[C@H]2CCCN2C(=O)[C@H](CO)NC(=O)[C@H](C)NC(=O)[C@H](C(C)(C)C)NC(=O)[C@H](CCN)NC(=O)[C@H](Cc2c[nH]c3ccccc23)NC(=O)[C@H](CCN)NC(=O)[C@@H](CCN)NC(=O)[C@H](CCCN)NC(=O)[C@H](CCN)NC(=O)[C@H](Cc2ccc(O)cc2)NC1=O [compound 126] (cyclo(I[Abu]Y[Dab][Orn][dDab][Dab]W[Dab][Tle]AS[dP]P)) | 0.5 |
| CC(C)C[C@@H]1NC(=O)[C@@H]2CCCN2C(=O)[C@H]2CCCN2C(=O)[C@H](CO)NC(=O)[C@H](C)NC(=O)[C@H](C(C)(C)C)NC(=O)[C@H](CCN)NC(=O)[C@H](Cc2c[nH]c3ccccc23)NC(=O)[C@H](CCN)NC(=O)[C@@H](CCN)NC(=O)[C@H](CCN)NC(=O)[C@H](CCN)NC(=O)[C@H](Cc2ccc(O)cc2)NC(=O)[C@H](CO)NC1=O [compound 96] (cyclo(LSY[Dab][Dab][dDab][Dab]W[Dab][Tle]AS[dP]P)) | 1 |
| C[C@@H]1NC(=O)[C@H](C(C)(C)C)NC(=O)[C@H](CCN)NC(=O)[C@H](Cc2c[nH]c3ccccc23)NC(=O)[C@H](CCN)NC(=O)C2(CCNCC2)NC(=O)[C@H](CCCN)NC(=O)[C@H](CCN)NC(=O)[C@H](CC2CCCCC2)NC(=O)[C@H](CN)NC(=O)[C@H](Cc2c[nH]c3ccccc23)NC(=O)[C@@H]2CCCN2C(=O)[C@H]2CCCN2C(=O)[C@H](CO)NC1=O [Ex. 62] (cyclo(W[Dap][Cha][Dab][Orn][Api][Dab]W[Dab][Tle]AS[dP]P)) | 1 |
| COc1ccc(C[C@@H]2NC(=O)[C@H](CO)NC(=O)[C@H](CC(C)C)NC(=O)[C@@H]3CCCN3C(=O)[C@H]3CCCN3C(=O)[C@H](CO)NC(=O)[C@H](C)NC(=O)[C@H](C(C)(C)C)NC(=O)[C@H](CCN)NC(=O)[C@H](Cc3c[nH]c4ccccc34)NC(=O)[C@H](CCN)NC(=O)[C@@H](CCN)NC(=O)[C@H](CCCN)NC(=O)[C@H](CCN)NC2=O)cc1 [compound 27] (cyclo(LSY(Me)[Dab][Orn][dDab][Dab]W[Dab][Tle]AS[dP]P)) | 1 |
| CC(C)C[C@@H]1NC(=O)[C@@H]2[C@@H](O)CCN2C(=O)[C@H]2CCCN2C(=O)[C@H](CO)NC(=O)[C@H](C)NC(=O)[C@H](C(C)(C)C)NC(=O)[C@H](CCN)NC(=O)[C@H](Cc2c[nH]c3ccccc23)NC(=O)[C@H](CCN)NC(=O)[C@@H](CCN)NC(=O)[C@H](CCCN)NC(=O)[C@H](CCN)NC(=O)[C@H](Cc2ccc(O)cc2)NC(=O)[C@H](CO)NC1=O [compound 57] (cyclo(AS[dP][Pro(3S-OH)]LSY[Dab][Orn][dDab][Dab]W[Dab][Tle])) | 1 |
| CCC[C@@H]1NC(=O)[C@@H]2CCCN2C(=O)[C@H]2CCCN2C(=O)[C@H](CO)NC(=O)[C@H](C)NC(=O)[C@H](C(C)(C)C)NC(=O)[C@H](CCN)NC(=O)[C@H](Cc2c[nH]c3ccccc23)NC(=O)[C@H](CCN)NC(=O)[C@@H](CCN)NC(=O)[C@H](CCCN)NC(=O)[C@H](CCN)NC(=O)[C@H](Cc2c[nH]c3ccccc23)NC(=O)[C@H](CO)NC1=O [compound 80] (cyclo([Nva]SW[Dab][Orn][dDab][Dab]W[Dab][Tle]AS[dP]P)) | 1 |
| C[C@@H]1NC(=O)[C@H](C(C)(C)C)NC(=O)[C@H](CCN)NC(=O)[C@H](Cc2c[nH]c3ccccc23)NC(=O)[C@H](CCN)NC(=O)[C@@H](CCN)NC(=O)[C@H](CCCN)NC(=O)[C@H](CCNCc2ccccn2)NC(=O)[C@H](CC2CCCCC2)NC(=O)[C@H](CN)NC(=O)[C@H](Cc2c[nH]c3ccccc23)NC(=O)[C@@H]2CCCN2C(=O)[C@H]2CCCN2C(=O)[C@H](CO)NC1=O [Ex. 11] (cyclo(W[Dap][Cha][X2][Orn][dDab][Dab]W[Dab][Tle]AS[dP]P)) | 0 |
| CCCCOc1ccc(NC(=O)NC[C@@H]2NC(=O)[C@H](CC(C)C)NC(=O)[C@@H]3CCCN3C(=O)[C@H]3CCCN3C(=O)[C@H](CO)NC(=O)[C@H](C)NC(=O)[C@H](C(C)(C)C)NC(=O)[C@H](CCN)NC(=O)[C@H](Cc3c[nH]c4ccccc34)NC(=O)[C@H](CCN)NC(=O)[C@@H](CCN)NC(=O)[C@H](CCCN)NC(=O)[C@H](CCN)NC(=O)[C@H](CC3CCCCC3)NC2=O)cc1 [compound 41] (cyclo(L[Dap]([CO-X4])[Cha][Dab][Orn][dDab][Dab]W[Dab][Tle]AS[dP]P)) | 7 |
| C[C@@H]1NC(=O)[C@H](C(C)(C)C)NC(=O)[C@H](CCN)NC(=O)[C@H](Cc2c[nH]c3ccccc23)NC(=O)[C@H](CCN)NC(=O)[C@@H](CCN)NC(=O)[C@H](CCCN)NC(=O)[C@H](CCN)NC(=O)[C@H](Cc2ccc(O)cc2)NC(=O)[C@H](CO)NC(=O)[C@H](CC(F)(F)F)NC(=O)[C@@H]2CCCN2C(=O)[C@H]2CCCN2C(=O)[C@H](CO)NC1=O [compound 156] (cyclo([Abu(4,4,4-F3)]SY[Dab][Orn][dDab][Dab]W[Dab][Tle]AS[dP]P)) | 1 |
| CC(C)C[C@@H]1NC(=O)[C@@H]2CCCN2C(=O)[C@H]2CCCN2C(=O)[C@H](CO)NC(=O)[C@H](C)NC(=O)[C@H](C(C)(C)C)NC(=O)[C@H](CCN)NC(=O)[C@H](Cc2c[nH]c3ccccc23)NC(=O)[C@H](CCN)NC(=O)[C@@H](CCN)NC(=O)[C@H](CCCN)NC(=O)[C@H](CCN)NC(=O)[C@H](CC2CCCCC2)NC(=O)[C@H](CNC(=O)NCc2cccnc2)NC1=O [compound 39] (cyclo(L[Dap]([CO-NH(3-picolyl)])[Cha][Dab][Orn][dDab][Dab]W[Dab][Tle]AS[dP]P)) | 3 |
